Results taken from patent EP1099690A1, “MONOCYCLIC $g(b)-LACTAM COMPOUNDS AND CHYMASE INHIBITORS CONTAINING THE SAME” (SHIONOGI & CO., LTD., priority 1998, dated 2000).

Molecular target: T1, human chymase (Homo sapiens, UniProt P23946)
T1 sequence (P23946 22-247): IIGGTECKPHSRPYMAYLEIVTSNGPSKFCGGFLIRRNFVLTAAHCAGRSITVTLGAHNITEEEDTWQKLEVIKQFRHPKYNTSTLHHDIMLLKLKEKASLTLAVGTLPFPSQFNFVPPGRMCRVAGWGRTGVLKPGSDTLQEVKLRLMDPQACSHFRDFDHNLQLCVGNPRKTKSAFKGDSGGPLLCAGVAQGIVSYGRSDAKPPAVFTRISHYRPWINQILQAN
Assay: Chymase inhibitory activity (Suc-Ala-Ala-Pro-Phe-pNA substrate, absorption 405 nm)
Type: biochemical
Conditions: purified human chymase, 30 minutes at 37 °C preincubation, substrate 0.5 mM
Procedure: Compound (I) was dissolved in dimethylsulfoxide (DMSO) at 10^-2 M. Concentration of DMSO for activity measurement was 1 %.
Compound (I) dissolved in DMSO and purified human chymase (Takai et al., Clinica Chimica Acta 265, 1997, 13-20) were added to a buffer (0.1M Tris-HCl, 1.8M NaCl pH8.0). After the mixture was treated for 30 minutes at 37 °C, Suc-Ala-Ala-Pro-Phe-pNA (BACHEM Feinchemikalien AG) was added at 0.5 mM as a substrate and the mixture was enzymatically reacted at 37 °C.
After the reaction, the absorption intensity (405 nm) of the solution was measured to calculate the inhibitory rate.

Row | SMILES | IC50
1 | C[C@@H](NC(=O)N1C(=O)[C@@H](Cc2ccccc2)[C@H]1Oc1ccc(C(=O)N2CCN(Cc3ccc4c(c3)OCO4)CC2)cc1)c1ccccc1 [Compound I-76] | 2.4 nM
2 | C[C@@H](NC(=O)N1C(=O)[C@@H](Cc2ccccc2)[C@H]1Oc1ccc(C(=O)N[C@@H](Cc2ccccc2)C(=O)O)cc1)c1ccccc1 [Compound I-77] | 0.26 nM
3 | C[C@@H](NC(=O)N1C(=O)[C@@H](Cc2ccccc2)[C@H]1Sc1ccccc1)c1ccccc1 [Compound I-85] | 2.4 nM
4 | COc1ccccc1C[C@@H]1C(=O)N(C(=O)N[C@H](C)c2ccccc2)[C@H]1Oc1ccc(C(=O)O)cc1 [Compound I-102] | 1 nM
5 | COc1ccccc1C[C@@H]1C(=O)N(C(=O)N[C@H](C)c2ccccc2)[C@H]1Oc1ccc(C(=O)N2CCN(C)CC2)cc1 [Compound I-104] | 0.19 nM
6 | COc1ccccc1C[C@@H]1C(=O)N(C(=O)N[C@H](C)c2ccccc2)[C@H]1Oc1ccc(C(=O)OCc2ccncc2)cc1 [Compound I-105] | 2.8 nM
7 | COc1ccccc1C[C@@H]1C(=O)N(C(=O)N[C@H](C)c2ccccc2)[C@H]1Oc1ccc(C(=O)N2CCN(c3ncccn3)CC2)cc1 [Compound I-107] | 0.68 nM
8 | COc1ccccc1C[C@@H]1C(=O)N(C(=O)N[C@@H](C)c2ccccc2)[C@H]1Oc1ccc(C(=O)N2CCN(C)CC2)cc1 [Compound I-111] | 11 nM
9 | CC[C@@H](NC(=O)N1C(=O)[C@@H](Cc2ccccc2OC)[C@@H]1Oc1ccc(C(=O)O)cc1)c1ccccc1 [Compound I-113] | 0.5 nM
10 | CC[C@H](NC(=O)N1C(=O)[C@@H](Cc2ccccc2OC)[C@@H]1Oc1ccc(C(=O)O)cc1)c1ccccc1 [Compound I-115] | 18 nM
11 | CCCC(NC(=O)N1C(=O)[C@@H](Cc2ccccc2OC)[C@@H]1Oc1ccc(C(=O)N2CCC(N3CCCCC3)CC2)cc1)c1ccc2c(c1)OCO2 (stereo partly shown) [Compound I-121] | 0.29 nM
12 | COc1ccccc1C[C@@H]1C(=O)N(C(=O)NC2(c3ccccc3)CC2)[C@H]1Oc1ccc(C(=O)O)cc1 [Compound I-125] | 19 nM
13 | COc1ccccc1C[C@@H]1C(=O)N(C(=O)N[C@@H](C)c2ccccc2)[C@@H]1Oc1ccc(C(=O)O)cc1 [Compound I-130] | 1.18 nM
14 | COc1ccccc1C[C@@H]1C(=O)N(C(=O)N[C@@H](C)c2ccccc2)[C@@H]1Oc1ccc(C(=O)N2CCN(C)CC2)cc1 [Compound I-134] | 0.1 nM
15 | CCOc1ccccc1C[C@@H]1C(=O)N(C(=O)N[C@H](CC)c2ccccc2)[C@H]1Oc1ccc(C(=O)O)cc1 [Compound I-135] | 2.1 nM
16 | CCOc1ccccc1C[C@@H]1C(=O)N(C(=O)N[C@H](CC)c2ccccc2)[C@H]1Oc1ccc(C(=O)N2CCN(C3CCCCC3)CC2)cc1 [Compound I-137] | 3.4 nM
17 | CCOc1ccccc1C[C@@H]1C(=O)N(C(=O)NC(c2ccccc2)c2ccccc2)[C@H]1Oc1ccc(C(=O)N2CCN(C3CCCCC3)CC2)cc1 [Compound I-145] | 10.8 nM
18 | CCOc1ccccc1C[C@@H]1C(=O)N(C(=O)NC(c2ccccc2)c2ccccc2)[C@H]1Oc1ccc(C(=O)NS(=O)(=O)c2ccccc2)cc1 [Compound I-151] | 4.6 nM
19 | CCOc1ccccc1C[C@@H]1C(=O)N(C(=O)NC(c2ccccc2)c2ccccc2)[C@H]1Oc1ccc(/C=C/C(=O)O)cc1 [Compound I-155] | 3.8 nM
20 | CCOc1ccccc1C[C@@H]1C(=O)N(C(=O)NC(c2ccc(OC)cc2)c2ccc(OC)cc2)[C@H]1Oc1ccc(C(=O)O)cc1 [Compound I-160] | 15 nM
21 | CCCc1ccccc1C[C@@H]1C(=O)N(C(=O)NC(c2ccccc2)c2ccccc2)[C@H]1Oc1ccc(C(=O)O)cc1 [Compound I-161] | 18 nM
22 | CCC1(Cc2ccccc2)C(=O)N(C(=O)NC(C)c2ccccc2)C1Oc1ccc(C(=O)N2CCN(C)CC2)cc1 (stereo not shown) [Compound I-173] | 190 nM

More lines, in order of falling IC50, values ahead:

Row | IC50 | SMILES
23 | 115 nM | CCC1(Cc2ccccc2)C(=O)N(C(=O)NC(C)c2ccccc2)C1Oc1ccc(C(=O)O)cc1 (stereo not shown) [Compound I-172]
24 | 18.5 nM | C[C@H](NC(=O)N1C(=O)[C@H](Cc2ccccc2)[C@H]1Oc1ccc(C(=O)N2CCN(C)CC2)cc1)c1ccccc1 [Compound I-89]
25 | 16 nM | CC(NC(=O)N1C(=O)[C@@H](Cc2ccccc2)[C@@H]1Oc1ccc(C(N)=O)cc1)c1ccccc1 (stereo partly shown) [Compound I-95]
26 | 14.5 nM | CCOc1ccccc1C[C@@H]1C(=O)N(C(=O)NC(c2ccc(F)cc2)c2ccc(F)cc2)[C@H]1Oc1ccc(C(=O)O)cc1 [Compound I-159]
27 | 13 nM | C[C@H](NC(=O)N1C(=O)[C@@H](Cc2ccccc2)[C@H]1Oc1ccc(C(=O)N2CCN(C)CC2)cc1)c1ccccc1 [Compound I-81]
28 | 5.4 nM | CCOc1ccccc1C[C@@H]1C(=O)N(C(=O)NC(c2ccccc2)c2ccccc2)[C@H]1Oc1ccc(C(=O)OCCN2CCOCC2)cc1 [Compound I-150]
29 | 4.1 nM | CCOc1ccccc1C[C@@H]1C(=O)N(C(=O)NC(c2ccccc2)c2ccccc2)[C@H]1Oc1ccc(C(=O)O)c(C(=O)O)c1 [Compound I-152]
30 | 2.95 nM | COc1ccccc1C[C@@H]1C(=O)N(C(=O)NC(c2ccccc2)c2ccccc2)[C@H]1Oc1ccc(C(=O)O)cc1 [Compound I-126]
31 | 2.5 nM | CCOc1ccccc1C[C@@H]1C(=O)N(C(=O)NC(c2ccccc2)c2ccccc2)[C@H]1Oc1ccc(CC(=O)O)cc1 [Compound I-154]
32 | 1.2 nM | C[C@@H](NC(=O)N1C(=O)[C@@H](Cc2ccccc2)[C@H]1Oc1ccc(C(=O)OCc2ccncc2)cc1)c1ccccc1 [Compound I-75]
33 | 1.02 nM | COc1ccccc1C[C@@H]1C(=O)N(C(=O)N[C@H](C)c2ccccc2)[C@@H]1Oc1ccc(C(=O)N2CCN(C)CC2)cc1 [Compound I-129]
34 | 0.8 nM | C[C@@H](NC(=O)N1C(=O)[C@H](Cc2ccccc2)[C@H]1Oc1ccc(C(=O)N2CCN(C)CC2)cc1)c1ccccc1 [Compound I-87]
35 | 0.55 nM | CCOc1ccccc1C[C@@H]1C(=O)N(C(=O)NC(c2ccccc2)c2ccccc2)[C@H]1Oc1ccc(C(=O)N2CCOCC2)cc1 [Compound I-148]
36 | 0.48 nM | COc1ccccc1C[C@@H]1C(=O)N(C(=O)N[C@H](C)c2ccccc2)[C@H]1Oc1ccc(C(=O)N2CCN(C3CCCCC3)CC2)cc1 [Compound I-108]
37 | 0.25 nM | COc1ccccc1C[C@@H]1C(=O)N(C(=O)N[C@@H](C)c2ccccc2)[C@@H]1Oc1ccc(C(=O)N2CCN(C)CC2)cc1 [Compound I-132]
